Like-named read-outs stand apart in the source and are kept apart here. Marks after values point to notes of the source that are not given here.
What was measured:
H2O solubility = type: physicochemical; conditions: water; for Example 1 stated for the solid before preparative hplc
A549 tumor xenografts = system: A549 tumor xenografts
Description: Utilizing this model, one can measure the ability of test compounds to inhibit the growth of human tumor xenografts growing subcutaneously (s.c.) in athymic nude mice. The histologic tumor types employed were MDA-MB-435 breast, A549 non-small cell lung, HCT-116 colon and PC-3 prostate carcinomas.
A549 non-small cell lung carcinoma xenograft model: Briefly, 10 million cells were implanted s.c. into the right flank of athymic (nu/nu) mice, and were allowed to grow until a mass of approximately 120 mm^3 was established. The test compounds are administered three times per week intravenously (i.v.) for three weeks in 5% dextrose, 10%DMSO in water. The test compounds are administered in dose-response fashion in order to evaluate and document the full potential range of activity (efficacy and toxicity) for a given compound. Positive controls are carried out with mitomycin C administered 3 times per week intraperitioneally (i.p.).
Toxicity was monitored by recording average group body weights twice weekly, and by daily observation of general health. Efficacy was monitored by taking measurements of tumor length, width, and depth weekly using digital calipers coupled to automated data collectors. Mean tumor volume (MTV) at initiation of therapy was subtracted from final MTV in order to express the actual tumor growth during treatment (ΔMTV). Anti-tumor activity was expressed as %T/C (ΔMTV of treated group÷ΔMTV of control group×100). Regressions were calculated using the formula: (T/T0−1)×100%, where T is the tumor volume for the treatment group at the end of the experiment, and T0 is the tumor volume at the beginning of the experiment. Statistical significance was evaluated using a one-tailed Student's t-test (p<0.05).

HCT-116 colon carcinoma = assay: Anchorage Dependent Growth Monolayer Assay (ADGMA), HCT-116; type: cell-based, human; conditions: 3-day exposure, MTS readout, read-out: IC50 (average±S.D.) HCT-116
Method: (§1) As indicated above, all of the compounds of formula I, and their corresponding pharmaceutically acceptable acid addition salts, are anti-tumor agents and are, therefore, useful in inhibiting the growth of various lymphomas, sarcomas, carcinomas, myelomas, and leukemia cell lines.
(§2) The ADGMA compares the number of viable cells following a 3-day exposure to a test compound relative to a number of cells present at the time the test compound was added. […] The absorbance at 490 nm (A490) of the formazan derivative is proportional to the number of viable cells. The IC50 for a test compound is the concentration of compound required to reduce the final cell number to 50% of the final control cell number. If cell proliferation is inhibited, the assay further defines compounds as cytostatic (cell number after 3-day compound incubation >cell number at time of compound addition) or cytotoxic (cell number after 3-day compound incubation <cell number at time of compound addition).
(§3) A549, HCT-116 and PC-3 cells were maintained in RPMI 1640 containing 5% FBS, […], 1 nM β-estradiol, 1 nM testosterone, 100 units/mL penicillin and 100 ug/mL streptomycin.
(§4) Cell lines are trypsinized and counted using a Coulter counter to determine plating densities. Cells are then plated in their respective maintenance media (100 μL/well) in 96 well plates at the following densities: MDA-MB-435, 3,000 cells/well; A549 and HCT-116, 700 cells/well; are PC-3, 2500 cells/well. The number of cells plates as determined in preliminary experiments, results in cell densities of 75-90% of confluency by 4 days after plating. Initial cell densities, assayed one day after plating, are roughly 0.15-0.20 absorbance units greater than the media blank. Ninety-six well plates are seeded on day 0 and the test compounds are added on day 1. A control plate is created for each cell line that receives media only in row A and cells in row B. One day following plating, test compounds are added (in a final volume of 100 μL) to the test plates. Control plates receive 10 μL MTS mixture (prepared fresh on day of addition to cell plates at a ratio of 10 μL of a 0.92 mg/mL solution of PMS to a 190 μL of a 2 mg/mL solution of MTS) and 100 μL media. A490 of control plates is read 4 h after MTS addition to determine initial cell density values for each cell line. Three days after addition of test compound, 10 μL/well of MTS mixture is added to the test plates and A490 is read 4 h later. A490 values for wells containing cells are corrected for media absorbance, then normalized to initial density readings to determine percent net growth. IC50 values are determined from graphs of percent net growth as a function of compound concentration. Percent net growth is calculated as (Cell+Drug A490−Initial A490/Cell+Drug Vehicle A490−Initial A490).

[1] = system: MDA-MB-435 breast carcinoma; assay: Anchorage Dependent Growth Monolayer Assay (ADGMA), MDA-MB-435; type: cell-based, human; conditions: 3-day exposure, MTS readout, read-out: IC50 (average±S.D.) MDA-MB-435
Method: as §1, §2
The MDA-MB-435 breast carcinoma line was obtained from the American Type Culture Collection (ATCC) and used between passages 4-20 following thawing. MDA-MB-435 breast carcinoma was maintained and plated in DME/F12 medium containing 10% fetal bovine serum, 15 mM HEPES (pH=7.4), 100 units/mL penicillin, and 100 μg/mL streptomycin.
as §4

[2] = system: MDA-MB-435 tumor xenografts; assay: MDA-MB-435 breast carcinoma xenograft model; type: in vivo, athymic (nu/nu) mice
Method: Positive controls are carried out with doxorubicin administered 3 times per week i.v.
The following results were obtained for compounds of Ex.1-Ex.12 tested against MDA-MB-435 tumor xenografts 3×/week for 3 weeks: […]

PC-3 prostate carcinoma = assay: Anchorage Dependent Growth Monolayer Assay (ADGMA), PC-3; type: cell-based, human; conditions: 3-day exposure, MTS readout, read-out: IC50 (average±S.D.) PC-3
Method: as §1, §2, §3, §4

HCT-116 tumor xenografts = assay: HCT-116 colon carcinoma xenograft model; type: in vivo, athymic (nu/nu) mice
Method: Positive controls are carried out with 5-fluorouracil administered 1 time per week i.v.

[3] = system: A549 non-small cell lung carcinoma; assay: Anchorage Dependent Growth Monolayer Assay (ADGMA), A549; type: cell-based, human; conditions: 3-day exposure, MTS readout, read-out: IC50 (average±S.D.) A549
Method: as §1, §2, §3, §4

PC-3 tumor xenografts = assay: PC-3 prostate carcinoma xenograft model; type: in vivo, athymic (nu/nu) mice
[4] = 10 μmol/kg i.v. 3×/week for 3 weeks
[5] = 33 μmol/kg i.v. 3×/week for 3 weeks
[6] = 100 μmol/kg i.v. 3×/week for 3 weeks

CO[C@@H](C(=O)N[C@H]1CC[C@@H](OC(=O)C2CCCC2)CNC1=O)[C@H](O)[C@@H](O)[C@H](O)/C=C/C(C)(C)C [Ex. 2]
H2O solubility (H2O solubility): 18 mg/mL | % T/C (A549 tumor xenografts; [4]): 58% | Dead/Total (A549 tumor xenografts; [4]): 0/8 | Δ MTV (A549 tumor xenografts; [4]): 44 mm^3 | % T/C (A549 tumor xenografts; [5]): 37* % | Dead/Total (A549 tumor xenografts; [5]): 0/8 | Δ MTV (A549 tumor xenografts; [5]): 28 mm^3 | % T/C (A549 tumor xenografts; [6]): 9* % | Dead/Total (A549 tumor xenografts; [6]): 0/7 | Δ MTV (A549 tumor xenografts; [6]): 7 mm^3 | IC50 (HCT-116 colon carcinoma): 120 ± 29 nM | IC50 [1]: 128 ± 47 nM | % T/C [2, 4]: 67% | Dead/Total [2, 4]: 0/8 | % T/C [2, 5]: 13* % | Dead/Total [2, 5]: 0/8 | IC50 (PC-3 prostate carcinoma): 145 ± 53 nM | % T/C (HCT-116 tumor xenografts; [4]): 75% | Dead/Total (HCT-116 tumor xenografts; [4]): 0/8 | Δ MTV (HCT-116 tumor xenografts; [4]): 303 mm^3 | % T/C (HCT-116 tumor xenografts; [5]): 56* % | Dead/Total (HCT-116 tumor xenografts; [5]): 0/8 | Δ MTV (HCT-116 tumor xenografts; [5]): 225 mm^3 | % T/C (HCT-116 tumor xenografts; [6]): 25* % | Dead/Total (HCT-116 tumor xenografts; [6]): 0/8 | Δ MTV (HCT-116 tumor xenografts; [6]): 102 mm^3 | IC50 [3]: 201 ± 100 nM

CO[C@@H](C(=O)N[C@H]1CC[C@@H](OC(=O)CCc2ccccc2)CNC1=O)[C@H](O)[C@@H](O)[C@H](O)/C=C/C(C)(C)C [Ex. 4, (2R, 3R, 4S, 5R, 6E)-3,4,5-Trihydroxy-2-methoxy-8,8-dimethyl-N-[(3S, 6R)-hexahydro-2-oxo-6-(1-oxo-3-phenylpropoxy)-2H-azepin-3-yl]non-6-enamide]
% T/C (A549 tumor xenografts; [5]): 17* % | Dead/Total (A549 tumor xenografts; [5]): 0/8 | Δ MTV (A549 tumor xenografts; [5]): 13 mm^3 | % regression (A549 tumor xenografts; [6]): 22 regression* % | Dead/Total (A549 tumor xenografts; [6]): 1/8 | Δ MTV (A549 tumor xenografts; [6]): −10 mm^3 | % T/C (PC-3 tumor xenografts; [4]): 77% | Dead/Total (PC-3 tumor xenografts; [4]): 0/8 | Δ MTV (PC-3 tumor xenografts; [4]): 1722 mm^3 | % T/C (PC-3 tumor xenografts; [5]): 29% | Dead/Total (PC-3 tumor xenografts; [5]): 0/8 | Δ MTV (PC-3 tumor xenografts; [5]): 638 mm^3 | % T/C (PC-3 tumor xenografts; [6]): 4* % | Dead/Total (PC-3 tumor xenografts; [6]): 0/8 | Δ MTV (PC-3 tumor xenografts; [6]): 100 mm^3 | IC50 (HCT-116 colon carcinoma; Homo sapiens, HCT-116, 72 h): 7 ± 3 nM | IC50 ([1]; Homo sapiens, MDA-MB-435, 72 h): 12 ± 14 nM | % T/C [2, 4]: 53* % | Dead/Total [2, 4]: 0/8 | % T/C [2, 5]: 12* % | Dead/Total [2, 5]: 0/8 | % regression [2, 6]: 58 regression* % | Dead/Total [2, 6]: 0/8 | Δ MTV [2, 6]: −23 mm^3 | IC50 (PC-3 prostate carcinoma; Homo sapiens, 72 h): 7 ± 4 nM | % T/C (HCT-116 tumor xenografts; [4]): 70* % | Dead/Total (HCT-116 tumor xenografts; [4]): 0/8 | Δ MTV (HCT-116 tumor xenografts; [4]): 280 mm^3 | % T/C (HCT-116 tumor xenografts; [5]): 22* % | Dead/Total (HCT-116 tumor xenografts; [5]): 0/8 | Δ MTV (HCT-116 tumor xenografts; [5]): 87 mm^3 | % T/C (HCT-116 tumor xenografts; [6]): 11* % | Dead/Total (HCT-116 tumor xenografts; [6]): 1/8 | Δ MTV (HCT-116 tumor xenografts; [6]): 44 mm^3 | IC50 ([3]; Homo sapiens, A549, 72 h): 20 ± 9 nM

From patent US6555533B2, “Use of certain substituted caprolactams in treating tumors” (Novartis AG, priority 1998, dated 2003)
